# In patent publication US9657033B2, “Tetrahydronaphthyridine and related bicyclic compounds for inhibition of RORγ activity and the treatment of disease” (Merck Sharp & Dohme Corp., priority 2012, dated 2017):
# How the values were obtained:
# [1] = target: T1, RORγ-LBD (Homo sapiens (Human), UniProt P51449); experiment: RORγ-Ligand Binding Domain (LBD) TR-FRET Assay Protocol II; type: biochemical; settings: purified RORγ-LBD, SRC1 peptide, overnight at 4° C.
# [2] = target: T1, RORγ-LBD; experiment: RORγ-Ligand Binding Domain (LBD) TR-FRET Assay Protocol I; type: biochemical; settings: RORγ-LBD lysate from SF9 cells, SRC1-2 peptide
# Method: Part I—Procedures for RORγ-Ligand Binding Domain TR-FRET Assay Protocol I
# Recombinant,HIS-tagged RORγ-LBD was expressed in SF9 cells using a baculovirus expression system. Cells were lysed and the lysate was used as a source for RORγ-LBD for the assay. A 1:80 dilution of RORγ-LBD lysate in assay buffer (25 mM HEPES pH 7.0, 100 mM NaCl, 0.01% Tween, 0.1% BSA) was prepared and 5 μL was added to each well (RORγ-LBD final concentration ˜3 nM). Control wells received lysate from SF9 cells not expressing RORγ-LBD.
# Compounds to be tested were diluted to 100× final test concentration in DMSO and further diluted to 4× final test concentration using assay buffer to provide the test compound mixture. An aliquot (5 μL) of the test compound mixture was added to each well.
# A 4× stock of biotinylated-LXXLL peptide from SRC1-2 (Biotin-[…]) was prepared in assay buffer and a 5 μL aliquot added to each well (450 nM final concentration). A 4× solution of europium tagged anti-HIS antibody (2 nM final concentration) and APC conjugated streptavidin (60 nM final concentration) were prepared and a 5 μL aliquot added to each well.
# The final assay mixture was incubated for 4 hours to overnight, and the fluorescence signal was measured on an Envision plate reader: (Excitation filter=340 nm; APC emission=665 nm; Europium emission=615 nm; dichroic mirror=D400/D630; delay time=100 μs, integration time=200 μs).
# EC50 values for test compounds were calculated from the quotient of the fluorescence signal at 665 nm divided by the fluorescence signal at 615 nm using GraphPad Prism software
# T1 sequence (P51449 269-508): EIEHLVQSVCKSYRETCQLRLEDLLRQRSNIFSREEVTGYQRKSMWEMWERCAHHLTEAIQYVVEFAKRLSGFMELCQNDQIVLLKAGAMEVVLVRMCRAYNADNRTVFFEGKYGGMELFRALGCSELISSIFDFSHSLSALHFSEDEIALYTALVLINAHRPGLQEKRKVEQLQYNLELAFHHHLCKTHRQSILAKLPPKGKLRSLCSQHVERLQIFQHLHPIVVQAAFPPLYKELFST
EC50 [1] [µM],EC50 [2] [µM],Structure (SMILES)
0.073,0.81,Cc1cccc(S(=O)(=O)N2C[C@H](C)Oc3ncc(NC(=O)[C@@H](C)c4ccccc4)cc32)c1 [Compound 28]
0.123,0.336,"CC(=O)NC[C@H]1CN(S(=O)(=O)c2cccc(C)c2)c2cc(NC(=O)c3c(F)cccc3Cl)cnc2O1 [Compound 16, (S)-N-(3-(acetamidomethyl)-1-(m-tolylsulfonyl)-2,3-dihydro-1H-pyrido[2,3-b][1,4]oxazin-7-yl)-2-chloro-6-fluorobenzamide]"
0.022,0.166,"Cc1cccc(S(=O)(=O)N2C[C@H](C)Oc3ncc(NC(=O)c4c(F)cccc4Cl)cc32)c1 [Compound 14, (S)-2-chloro-6-fluoro-N-(3-methyl-1-(m-tolylsulfonyl)-2,3-dihydro-1H-pyrido[2,3-b][1,4]oxazin-7-yl)benzamide]"
